The results in this text go back to US9044426B2, “Antimicrobial peptides for treatment of infectious diseases” (Dr. Roland Berecz, priority 2011, dated 2015).

Where no end group is shown, it is not given here.

This assay concerns luminescent bacteria. Kind of assay: Luminescence screen of SPOT-synthesized peptides on luminescent bacteria, with recovery check. It is filed as cell-based. The following applies: 0.1 M Tris buffer pH 7.4, 20 mM glucose, luminescence after 4 hours, recovery inspected after 18 h. As for the experimental part:
The peptides are synthesized using standard Fmoc-strategy on cellulose with the SPOT technology; they are positively charged peptides, which were then cleaved from the cellulose and solubilized in water. Peptides were transferred into wells containing luminescent bacteria, in 0.1 M Tris buffer (pH 7.4), containing 20 mM glucose. After 4 hours of incubation time, the luminescence was measured using a microtiter plate reader. Consequently, 50 μl of Mueller-Hinton media was added in order to check for recovery of the bacteria. The plates were manually inspected after 18 h of incubation time.
Take “KFKWWRMLI (also: cellulose-bound) [KFKWWRMLI (SEQ ID NO.:10), peptide synthesized on cellulose with the SPOT technology]”: the antimicrobial activity entry is “showed antimicrobial activity”.

Consider “KRKKRFKWW (also: cellulose-bound) [KRKKRFKWW (SEQ ID NO.:29), peptide synthesized on cellulose with the SPOT technology]”, for which the antimicrobial activity entry is recorded as “showed antimicrobial activity”.

For “KRRWRIWLV (also: cellulose-bound) [KRRWRIWLV (SEQ ID NO.:15), peptide synthesized on cellulose with the SPOT technology]”, the antimicrobial activity entry is reported as “showed antimicrobial activity”.

Consider “LRRWIRIRW (also: cellulose-bound) [LRRWIRIRW (SEQ ID NO.:21), peptide synthesized on cellulose with the SPOT technology]”, for which the antimicrobial activity entry is “showed antimicrobial activity”.

For “RIRRWKFRW (also: cellulose-bound) [RIRRWKFRW (SEQ ID NO.:6), peptide synthesized on cellulose with the SPOT technology]”, the antimicrobial activity entry is “showed antimicrobial activity”.

Turning to “RKFRWWVIR (also: cellulose-bound) [RKFRWWVIR (SEQ ID NO.:22), peptide synthesized on cellulose with the SPOT technology]”, the antimicrobial activity entry is given as “showed antimicrobial activity”.

Take “RLKRWWKFL (also: cellulose-bound) [RLKRWWKFL (SEQ ID NO.:7), peptide synthesized on cellulose with the SPOT technology]”: the antimicrobial activity entry is “showed antimicrobial activity”.

With “RRRWWKLMM (also: cellulose-bound) [RRRWWKLMM (SEQ ID NO.:20), peptide synthesized on cellulose with the SPOT technology]”, the antimicrobial activity entry is given as “showed antimicrobial activity”.

Consider “RTKKWIVWI (also: cellulose-bound) [RTKKWIVWI (SEQ ID NO.:28), peptide synthesized on cellulose with the SPOT technology]”, for which the antimicrobial activity entry is given as “showed antimicrobial activity”.

Take “WKWRVRVTI (also: cellulose-bound) [WKWRVRVTI (SEQ ID NO.:27), peptide synthesized on cellulose with the SPOT technology]”: the antimicrobial activity entry is reported as “showed antimicrobial activity”.

Turning to “YRLRVKWKW (also: cellulose-bound) [YRLRVKWKW (SEQ ID NO.:26), peptide synthesized on cellulose with the SPOT technology]”, the antimicrobial activity entry is listed as “showed antimicrobial activity”.
